One assay relates to eosinophils. Description: Eosinophil shape change assay with human plasma. It counts as cell-based. Particulars: human plasma (50%), PGD2 100 nM activation, antagonistic activity. The method in brief:
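Human polymorphonuclear cells stained with anti-CD49d-APC, combined with compound-preincubated human plasma (50% of final volume, 4×10^6 cells/ml) for 10 min at 37° C., then stimulated 5 min with 100 nM PGD2 and fixed. Flow cytometry scored percent eosinophils with increased forward scatter.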

Another assay concerns the target hCRTH2 receptor (Homo sapiens (Human), UniProt Q9Y5Y4). Description: hCRTH2 receptor membranes radioligand (3H-PGD2) displacement assay. The assay is classed as binding. Particulars: 3H-PGD2 radioligand displacement, HEK293-hCRTH2 membranes. The method in brief: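 Compound was first mixed with buffer, then 3H-PGD2 was added at 2.5 nM, and the reaction was started with hCRTH2 membranes from HEK293 cells at 20 μg/well. After 90 min at room temperature, mixtures were filtered and washed with ice-cold buffer, and retained radioactivity was counted.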
A general note: Loss of bound radioactivity is the signal in a displacement assay; it reports binding, not function.

Sequence of hCRTH2 receptor (Q9Y5Y4 whole entry): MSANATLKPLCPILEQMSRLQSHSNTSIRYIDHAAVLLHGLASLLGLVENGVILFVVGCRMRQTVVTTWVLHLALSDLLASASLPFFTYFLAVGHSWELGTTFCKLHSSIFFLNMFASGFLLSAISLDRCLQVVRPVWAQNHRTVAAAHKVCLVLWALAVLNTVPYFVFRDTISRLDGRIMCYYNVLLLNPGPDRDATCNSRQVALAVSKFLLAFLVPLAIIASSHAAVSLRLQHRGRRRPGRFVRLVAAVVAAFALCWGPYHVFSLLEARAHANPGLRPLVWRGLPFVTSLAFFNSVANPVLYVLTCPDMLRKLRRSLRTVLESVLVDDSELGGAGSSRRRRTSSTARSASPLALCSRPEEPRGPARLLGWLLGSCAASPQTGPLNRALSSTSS

On to `CN(C)c1ccc(CC(=O)O)cc1-c1ccc(F)c2c1CN(C(=O)OCc1ccccc1)CC2` [Example 420, 8-(5-Carboxymethyl-2-dimethylamino-phenyl)-5-fluoro-3,4-dihydro-1H-isoquinoline-2-carboxylic acid benzyl ester], for which the IC50 (as a rule, the concentration needed to halve the response being measured) with eosinophils (Homo sapiens, Eosinophil) came out at 17 nM; at hCRTH2 receptor, 2.4 nM.

For `CCOc1ccc(CC(=O)O)cc1-c1ccc(F)c2c1CN(C(=O)OCC1CCCC1)CC2` [Example 369, 8-(5-Carboxymethyl-2-ethoxy-phenyl)-5-fluoro-3,4-dihydro-1H-isoquinoline-2-carboxylic acid cyclopentylmethyl ester], the IC50 with eosinophils (Homo sapiens, Eosinophil) stood at 266 nM; on hCRTH2 receptor, 8.7 nM.

Take `COc1ccc(CC(=O)O)cc1-c1ccc(F)c2c1CN(C(=O)CC1CCOc3cc(F)ccc31)CC2` (racemic) [Example 243]: the IC50 turned out to be 92 nM in the assay on eosinophils (Homo sapiens, Eosinophil) and 20.6 nM at hCRTH2 receptor.

Take `COc1ccc(CC(=O)O)cc1-c1ccc(F)c2c1CN(C(=O)OCc1cccc(F)c1F)CC2` [Example 147, 8-(5-Carboxymethyl-2-methoxy-phenyl)-5-fluoro-3,4-dihydro-1H-isoquinoline-2-carboxylic acid 2,3-difluoro-benzyl ester]: the IC50 with eosinophils (Homo sapiens, Eosinophil) worked out at 622 nM; at hCRTH2 receptor, 2.51 nM.

For `CC(C)Oc1cc(CC(=O)O)ccc1-c1ccc(F)c2c1CN(C(=O)OCc1ccccc1)CC2` [Example 217, 8-(4-Carboxymethyl-2-isopropoxy-phenyl)-5-fluoro-3,4-dihydro-1H-isoquinoline-2-carboxylic acid benzyl ester], the concentration for half-maximal inhibition (IC50) in the assay on eosinophils (Homo sapiens, Eosinophil) was found to be 46 nM; at hCRTH2 receptor, 2.3 nM.

Turning to `COc1cc(CC(=O)O)ccc1-c1ccc(F)c2c1CN(C(=O)COCc1ccccc1Cl)CC2` [Example 193, (4-{2-[2-(2-Chloro-benzyloxy)-acetyl]-5-fluoro-1,2,3,4-tetrahydro-isoquinolin-8-yl}-3-methoxy-phenyl)-acetic acid], the IC50 in the assay with eosinophils (Homo sapiens, Eosinophil) is 94 nM; at hCRTH2 receptor, 1.38 nM.

Consider `CCOc1ccc(CC(=O)O)cc1-c1ccc(F)c2c1CN(C(=O)CC(C)c1ccccn1)CC2` (centres unmarked) [Example 203, {4-Ethoxy-3-[5-fluoro-2-(3-pyridin-2-yl-butyryl)-1,2,3,4-tetrahydro-isoquinolin-8-yl]-phenyl}-acetic acid], for which the results for the IC50 in the assay on eosinophils and on hCRTH2 receptor were 12 nM and 2.9 nM, respectively.

Consider `CCOc1cc(CC(=O)O)ccc1-c1ccc(F)c2c1CN(C(=O)CC1CCOc3ccccc31)CC2` (racemic) [Example 236], for which the IC50 in the assay on eosinophils (Homo sapiens, Eosinophil) came to 12 nM; on hCRTH2 receptor, 0.8 nM.

With `CCOc1ccc(CC(=O)O)cc1-c1ccc(F)c2c1CN(C(=O)CC(C)(C)c1ccc(F)cc1)CC2` [Example 223, (4-Ethoxy-3-{5-fluoro-2-[3-(4-fluoro-phenyl)-3-methyl-butyryl]-1,2,3,4-tetrahydro-isoquinolin-8-yl}-phenyl)-acetic acid], the IC50 in the assay with eosinophils (Homo sapiens, Eosinophil) is 19 nM; at hCRTH2 receptor, 15 nM.

As to `CC(C)Oc1ccc(CC(=O)O)cc1-c1ccc(C#N)c2c1CN(C(=O)OCc1ccccc1)CC2` [Example 431, 8-(5-Carboxymethyl-2-isopropoxy-phenyl)-5-cyano-3,4-dihydro-1H-isoquinoline-2-carboxylic acid benzyl ester], the IC50 is 47 nM in the assay on eosinophils (Homo sapiens, Eosinophil) and 1.4 nM on hCRTH2 receptor.

With `CCOc1ccc(CC(=O)O)cc1-c1ccc(F)c2c1CN(C(=O)OCc1ccc(F)cc1)CC2` [Example 398, 8-(5-Carboxymethyl-2-ethoxy-phenyl)-5-fluoro-3,4-dihydro-1H-isoquinoline-2-carboxylic acid 4-fluoro-benzyl ester], the IC50 worked out at 13 nM in the assay on eosinophils (Homo sapiens, Eosinophil) and 3.4 nM on hCRTH2 receptor.

In the case of `CCOc1cc(CC(=O)O)ccc1-c1ccc(F)c2c1CN(C(=O)C[C@@H](C)c1ccccc1)CC2` [Example 234, {3-Ethoxy-4-[5-fluoro-2-((R)-3-phenyl-butyryl)-1,2,3,4-tetrahydro-isoquinolin-8-yl]-phenyl}-acetic acid], the IC50 was determined as 47 nM in the assay on eosinophils (Homo sapiens, Eosinophil) and 0.9 nM on hCRTH2 receptor.

As to `O=C(O)Cc1ccc(OC(F)(F)F)c(-c2ccc(F)c3c2CN(C(=O)OCc2ccccc2)CC3)c1` [Example 21, 8-(5-Carboxymethyl-2-trifluoromethoxy-phenyl)-5-fluoro-3,4-dihydro-1H-isoquinoline-2-carboxylic acid benzyl ester], the IC50 in the assay on eosinophils (Homo sapiens, Eosinophil) was determined as 64 nM; at hCRTH2 receptor, 2.19 nM.

Consider `CCOc1ccc(CC(=O)O)cc1-c1ccc(F)c2c1CN(C(=O)CC(C)(C)c1ccccc1)CC2` [Example 225, {4-Ethoxy-3-[5-fluoro-2-(3-methyl-3-phenyl-butyryl)-1,2,3,4-tetrahydro-isoquinolin-8-yl]-phenyl}-acetic acid], for which the IC50 in the assay on eosinophils (Homo sapiens, Eosinophil) was determined as 37 nM; on hCRTH2 receptor, 11.7 nM.

`CCOc1ccc(CC(=O)O)cc1-c1ccc(F)c2c1CN(C(=O)CCc1cccc(C)n1)CC2` [Example 329, (4-Ethoxy-3-{5-fluoro-2-[3-(6-methyl-pyridin-2-yl)-propionyl]-1,2,3,4-tetrahydro-isoquinolin-8-yl}-phenyl)-acetic acid]: the IC50 with eosinophils (Homo sapiens, Eosinophil) was found to be 21 nM; on hCRTH2 receptor it was 4.2 nM.

As to `COc1ccc(CC(=O)O)cc1-c1ccc(F)c2c1CN(C(=O)CC(C)(C)c1ccccc1)CC2` [Example 108, {3-[5-Fluoro-2-(3-methyl-3-phenyl-butyryl)-1,2,3,4-tetrahydro-isoquinolin-8-yl]-4-methoxy-phenyl}-acetic acid], the IC50 with eosinophils (Homo sapiens, Eosinophil) was found to be 92 nM; at hCRTH2 receptor, 10.1 nM.

Turning to `COc1ccc(CC(=O)O)cc1-c1cc(F)c(F)c2c1CN(C(=O)OCc1ccccc1)CC2` [Example 31, 8-(5-Carboxymethyl-2-methoxy-phenyl)-5,6-difluoro-3,4-dihydro-1H-isoquinoline-2-carboxylic acid benzyl ester], the concentration for half-maximal inhibition (IC50) is 436 nM in the assay with eosinophils (Homo sapiens, Eosinophil) and 12 nM at hCRTH2 receptor.

Take `COc1ccc(CC(=O)O)cc1-c1ccc(Cl)c2c1CN(C(=O)[C@@H]1C[C@H]1c1ccccc1)CC2` [Example 71, {3-[5-Chloro-2-((1R,2R)-2-phenyl-cyclopropanecarbonyl)-1,2,3,4-tetrahydro-isoquinolin-8-yl]-4-methoxy-phenyl}-acetic acid]: the IC50 was 22 nM in the assay with eosinophils (Homo sapiens, Eosinophil) and 1.68 nM on hCRTH2 receptor.

For the molecule `CCOc1cc(CC(=O)O)ccc1-c1ccc(F)c2c1CN(C(=O)OCc1ccc(F)cc1)CC2` [Example 404, 8-(4-Carboxymethyl-2-ethoxy-phenyl)-5-fluoro-3,4-dihydro-1H-isoquinoline-2-carboxylic acid 4-fluoro-benzyl ester], the IC50 in the assay with eosinophils (Homo sapiens, Eosinophil) turned out to be 10 nM; at hCRTH2 receptor, 2.3 nM.

Regarding `COc1ccc(CC(=O)O)cc1-c1ccc(F)c2c1CN(C(=O)C[C@@H](C)c1ccccc1)CC2` [Example 106, {3-[5-Fluoro-2-((R)-3-phenyl-butyryl)-1,2,3,4-tetrahydro-isoquinolin-8-yl]-4-methoxy-phenyl}-acetic acid], the IC50 in the assay on eosinophils (Homo sapiens, Eosinophil) was determined as 37 nM; at hCRTH2 receptor, 10.4 nM.

Take `CCOc1ccc(CC(=O)O)cc1-c1ccc(F)c2c1CN(C(=O)CC(C)c1cccc(F)c1)CC2` (racemic) [Example 279]: the IC50 with eosinophils (Homo sapiens, Eosinophil) came out at 45 nM; at hCRTH2 receptor, 6.9 nM.

As to `CCCCOC(=O)N1CCc2c(F)ccc(-c3cc(CC(=O)O)ccc3OCC)c2C1` [Example 376, 8-(5-Carboxymethyl-2-ethoxy-phenyl)-5-fluoro-3,4-dihydro-1H-isoquinoline-2-carboxylic acid butyl ester], the IC50 worked out at 59 nM in the assay with eosinophils (Homo sapiens, Eosinophil) and 6.3 nM at hCRTH2 receptor.

As for `COc1ccc(CC(=O)O)cc1-c1cc(F)cc2c1CN(C(=O)[C@@H]1C[C@H]1c1ccccc1)CC2` [Example 34, {3-[6-Fluoro-2-((1R,2R)-2-phenyl-cyclopropanecarbonyl)-1,2,3,4-tetrahydro-isoquinolin-8-yl]-4-methoxy-phenyl}-acetic acid], the IC50 in the assay on eosinophils (Homo sapiens, Eosinophil) came out at 25 nM; on hCRTH2 receptor it was 2.7 nM.

As for `CCOc1ccc(CC(=O)O)cc1-c1ccc(F)c2c1CN(C(=O)CC1(c3ccccc3)CC1)CC2` [Example 222, (4-Ethoxy-3-{5-fluoro-2-[2-(1-phenyl-cyclopropyl)-acetyl]-1,2,3,4-tetrahydro-isoquinolin-8-yl}-phenyl)-acetic acid], the IC50 worked out at 21 nM in the assay on eosinophils (Homo sapiens, Eosinophil) and 26.4 nM on hCRTH2 receptor.

As for `O=C(O)Cc1ccc(OCC(F)(F)F)c(-c2ccc(F)c3c2CN(C(=O)OCc2ccccc2)CC3)c1` [Example 421, 8-[5-Carboxymethyl-2-(2,2,2-trifluoro-ethoxy)-phenyl]-5-fluoro-3,4-dihydro-1H-isoquinoline-2-carboxylic acid benzyl ester], the IC50 was 16 nM in the assay on eosinophils (Homo sapiens, Eosinophil) and 3.8 nM on hCRTH2 receptor.

Regarding `CCOc1ccc(CC(=O)O)cc1-c1ccc(F)c2c1CN(C(=O)[C@@H]1C[C@H]1c1ccccn1)CC2` (racemic) [Example 330], the IC50 in the assay on eosinophils (Homo sapiens, Eosinophil) was 15 nM; at hCRTH2 receptor it was 0.6 nM.

Regarding `CC(C)COc1ccc(CC(=O)O)cc1-c1ccc(F)c2c1CN(C(=O)OCc1ccccc1)CC2` [Example 198, 8-(5-Carboxymethyl-2-isobutoxy-phenyl)-5-fluoro-3,4-dihydro-1H-isoquinoline-2-carboxylic acid benzyl ester], the IC50 in the assay on eosinophils (Homo sapiens, Eosinophil) was determined as 72 nM; on hCRTH2 receptor, 1.28 nM.

As to `CS(=O)(=O)c1ccc(CC(=O)O)cc1-c1ccc(F)c2c1CN(C(=O)[C@@H]1C[C@H]1c1ccccc1)CC2` [Example 29, {3-[5-Fluoro-2-((1R,2R)-2-phenyl-cyclopropanecarbonyl)-1,2,3,4-tetrahydro-isoquinolin-8-yl]-4-methanesulfonyl-phenyl}-acetic acid], the IC50 in the assay on eosinophils (Homo sapiens, Eosinophil) came to 20 nM; on hCRTH2 receptor it was 6.6 nM.

The values above are taken from patent US9255090B2, “Heterocyclyl derivatives and their use as prostaglandin D2 receptor modulators” (Actelion Pharmaceuticals Ltd., priority 2012, dated 2016).
